A melting point compilation (Tetko et al.; mined from patent text by program, amines drawn as free bases though some values may be those of a salt)

Row | SMILES | melting point
1 | Cc1ccsc1C(=O)Nc1ccc(I)cc1 | 141 to 142 °C
2 | CC(C)(C)N1CCN(Cc2ccc([N+](=O)[O-])cc2)S1(=O)=O | 113 °C
3 | CC(=O)NCCCC(C)C1CC=C2C3=C(CCC21C)C1(C)CCC(O)C(C)(C)C1CC3 (centres undefined) | 219 to 221 °C
4 | C=CCN1CCN(C(=O)OC2C3=C(OCCS3)C(=O)N2c2ccc3ccc(Cl)nc3n2)CC1 (centres undefined) | 254 °C
5 | COc1cc(C)c(C)c2c1CCC2=O | 127 to 128 °C
6 | C1=Nc2cc3c(cc2=C1)N=c1ccccc1=3 | 210 to 211 °C
7 | CC(C)(C)c1ccc([N+]([O-])=S)cc1 | 40 to 43 °C
8 | Cc1ccc([N+](=O)[O-])c(C=C2C(=O)NC(=O)N2C)c1 | 261 to 262 °C
9 | COC(=O)[C@@H]1CCCN1C(=O)c1cccc(O)c1[N+](=O)[O-] | 114 to 116 °C
10 | O=C(CN1CCNCC1)Nc1ccccc1 | 71 to 72 °C
11 | CCOC(=O)c1cccc2c1c(C(=O)C(=O)NC1=CC(=O)OC1)cn2Cc1ccc(Cl)cc1 | 242 to 244 °C
12 | CSc1nn2c(Cl)cc(C)nc2c1S(=O)(=O)c1ccc(C)cc1 | 197 to 198 °C
13 | CCN1CCC(=O)C(C(c2ccccc2)c2ccccc2)C1 (centres undefined) | 54 to 58 °C
14 | C=CC=C1SC(=S)N(CC(=O)O)C1=O | 144 to 146 °C
15 | Cc1ccc(C(CCN2CCCC2)c2ncc[nH]2)cc1 (centres undefined) | 125 to 127 °C
16 | CCCCCCCCCCC(=O)c1ccncc1 | 51 to 52 °C
17 | COc1ccc(C(=O)O)nc1OC1CCCC1 | 96 to 99 °C
18 | Nc1ccc(C(=O)c2nccs2)cc1[N+](=O)[O-] | 179 to 181 °C
19 | CC(C)(C)OC(=O)N1CCc2[nH]c3cccc(Br)c3c2CC1 | 223 to 225 °C
20 | CC(C)(O)CCCCc1ccc(C=Cc2ccc(CO)c(CO)c2)cc1 | 102 to 104 °C
21 | O=C1CCOc2c1ccc1c2OC(CN2CC=C(c3c[nH]c4ccccc34)CC2)CO1 (centres undefined) | 210 °C
22 | CCOC(=O)/C=C/c1cc(-c2ncc(C(F)(F)F)cc2Cl)ccc1Cl | 118 to 120 °C
23 | COc1cc(Br)cc2cc(C(C)=O)oc12 | 107 to 109 °C
24 | CC1(C2Cc3ccccc3O2)CCCCC1 (centres undefined) | 60 to 63 °C
25 | CCOC(=O)Cn1cnc2ccccc21 | 63 to 64 °C

Row | SMILES | melting point
26 | CC(=O)Oc1cc2oc(=O)ccc2cc1C | 147 °C
27 | Cc1ccc2c([nH]c3c(C(=O)N4CCOCC4)cccc32)c1C | 183 °C
28 | C#CCN(C(=O)C(Cl)Cl)C(C)C | 58 to 59 °C
29 | CC(=O)C(=NNc1cccc(Cl)c1)Sc1ccc(Cl)cc1 | 128 to 131 °C
30 | Cc1cc2c(cc1C(=O)c1ccc(C(=O)O)cc1)C1(C)C3(C)CCC(C3)C1(C)O2 (centres undefined) | 238 to 239 °C
31 | O=c1[nH]c2ncc(-c3ccc(O)cc3)nc2n1CCO | 308 to 310 °C
32 | CC(C)(C)OC(=O)N1CCCN(c2ccnc3sc(C(N)=O)c(N)c23)CC1 | 177 to 178 °C
33 | CN1CCCC1=NC(=O)Nc1cccc(C#N)c1 | 145 to 147 °C
34 | Nc1c(Cl)ncnc1Nn1cccc1 | 130 to 132 °C
35 | O=C(Nc1cccc2[nH]ccc12)c1ccccc1OCC(O)CN1CCN(C(c2ccccc2)c2ccccc2)CC1 (centres undefined) | 170 °C
36 | Cc1ccc(O)cc1NC(=O)CC12CC3CC(CC(C3)C1)C2 | 255 to 256 °C
37 | CCCC12CCC3c4ccc(OC)cc4CCC3C1CCC2O (centres undefined) | 141 to 143 °C
38 | CCCCCCCCCCC=NNC(=N)N | 101 °C
39 | c1ccc(CCc2ccc[nH]2)cc1 | 40 to 42 °C
40 | COCCOc1ccc(/C=C/C(=O)O)c(Oc2ncc(NC(=O)OC(C)(C)C)cc2C)c1 | 159 to 160 °C
41 | COc1ccc(Nc2ncc3c(n2)-c2sc(C)nc2CC3)cn1 | 210 to 211 °C
42 | CCc1cc([N+](=O)[O-])c(Cl)c([N+](=O)[O-])c1COC | 81 to 82 °C
43 | COC1(c2ccc(Sc3ccc4c(c3)OCC(=O)N4C)s2)CCOCC1 | 65 to 69 °C
44 | CC(=O)N(C)C(Cc1ccccc1N)c1sccc1C (centres undefined) | 176 to 182 °C
45 | COc1cc(OC)nc(Oc2cccc(Cl)c2NS(C)(=O)=O)n1 | 147 to 148 °C
46 | C[C@](O)(COc1ccc(C#N)cc1)C(=O)Nc1ccc(C#N)c(Cl)c1 | 103 to 105 °C
47 | Cc1ncc2ccc(-c3cccs3)nc2n1 | 175 to 180 °C
48 | CCOC(=O)C(=NOC)c1csc(NC(=O)CCl)n1 | 81 to 82 °C
49 | CN1C(=O)C(c2ccncc2)(c2ccc(OC(F)F)cc2)N=C1N (centres undefined) | 193 to 195 °C
50 | CCOC(=O)c1cc(F)c(N2CCCC2)nc1Cl | 95 °C

Now from value to compound:

Row | melting point | SMILES
51 | 142 to 148 °C | Cc1cc(F)ccc1-c1nc(NCCNC(=O)Nc2ccccc2)nc2c1ccc(=O)n2-c1c(F)cccc1F
52 | 209 to 211 °C | COc1ccc(-c2c(C3CCN(C)CC3)[nH]c(=O)c3ccccc23)cc1
53 | 140 °C | CCOC(=O)c1[nH]cc2c1NC1=C(C(=O)CCC1)C2c1ccc(Sc2nc3cc(OC)ccc3[nH]2)o1 (centres undefined)
54 | 162 to 164 °C | Cc1ccc(-c2cc(N3CCCCC3)c(C#N)c3c2-c2ccccc2C3)cc1
55 | 159 to 169 °C | O=C1C[C@H]2CN(C(=O)c3ccc(NC(=O)c4ccccc4-c4ccccc4)cc3)c3ccccc3C(=O)N2C1
56 | 106 to 108 °C | CCOC(=O)CN1C(=O)[C@@H](N)CCc2ccccc21
57 | 212 to 214 °C | CCCCOc1ccccc1Nc1ncc(C(=O)O)c(=O)[nH]1
58 | 92 to 98 °C | CC(O)C1C(=O)N2C1=CC(=O)C2C(=O)OCc1ccc([N+](=O)[O-])cc1 (centres undefined)
59 | 90 to 92 °C | Cn1nc(-c2ccccc2C(F)(F)F)nc1-c1ccccc1Cl
60 | 248 to 252 °C | COc1cc2c(cc1OS(=O)(=O)C(F)(F)F)[nH]c1cc(-c3ccccc3Cl)c3c(c12)C(=O)NC3=O
61 | 218 to 220 °C | Cc1ccc(NS(=O)(=O)c2ccc(N3CCNC3=O)cc2)cc1
62 | 103 to 105 °C | CC(C)c1c(C=O)c(-c2ccc(F)cc2)nn1-c1ccccc1
63 | 141 to 142 °C | Cn1c(C(F)(F)F)nc2c(OCc3ccccc3)cc(Br)cc21
64 | 126 to 129 °C | COc1ccc(C2=NN(CCCCCN3C(=O)c4ccccc4C3=O)C(=O)[C@H]3CC=CC[C@@H]23)cc1OC (relative stereo)
65 | 198 to 200 °C | COc1ccc(CNC=C2C(=O)Nc3cc(OC)c(OC)cc32)cc1OC
66 | 160 °C | CC(C)CNC(=O)[C@H]1C[C@H](C(=O)OC(C)(C)C)N(C(=O)CNC(=O)Nc2cccc(C(=O)O)c2)[C@@H]1c1ccccc1F (racemic)
67 | 109 to 111 °C | COc1ccc(C=O)cc1CN1C(=O)c2ccccc2C1=O
68 | 113 to 115 °C | COC(=N)N1CCC(c2nn(-c3ccc(C(F)(F)F)cc3)c3ccccc23)CC1
69 | 122 to 126 °C | O=C1c2cccc(OCc3ccccc3)c2C(=O)c2c(Cl)ccc(Cl)c21
70 | 160 to 161 °C | COc1ccc(CN(C)CCc2ccc(NC(=O)c3cccc4c(=O)c5cccc(C)c5[nH]c34)c(C)c2)cc1OC
71 | 70 to 71 °C | O=C(O)CCCc1ccc(-c2cccc(Cl)c2Cl)cc1
72 | 226 °C | CCn1c(=O)c2c(nc(/C=C/c3cc(OC)c(O)c(OC)c3)n2C)n(CC)c1=O
73 | 176 to 177 °C | Cc1ccc(C(=O)c2ccc(OCC(=O)O)c(Cl)c2Cl)cc1
74 | 72 to 74 °C | O=C1c2ccccc2C(O)N1CCCO[N+](=O)[O-] (centres undefined)
75 | 164 °C | CCOC(=O)c1cc(-c2cn(Cc3ccccc3C#N)c(=O)n2-c2ccc(F)cc2)ccn1

Row | melting point | SMILES
76 | 188 °C | COc1ccc(-c2csc(Nc3ccccc3C(F)(F)F)n2)cc1OC
77 | 275 to 277 °C | CCN(CC)C1=NC(=O)C(=Cc2cccc(-c3ccc(O)c(C45CC6CC(CC(C6)C4)C5)c3)c2)S1
78 | 140 to 150 °C | Cc1cccc(Cl)c1Nc1nc2ccc(-c3c(C)cccc3C)cc2n2cncc12
79 | 145 to 146 °C | CC(C)(C)C(=O)CC(c1ccc(Cl)cc1)S(=O)(=O)c1ccccc1 (centres undefined)
80 | 190 to 192 °C | O=C(O)c1ccccc1C(=O)c1ccc(N2CCCC2)cc1O
81 | 132 °C | CC(C(=O)O)c1ccc2nc(-c3ccccc3)oc2c1 (centres undefined)
82 | 211 to 213 °C | O=c1[nH]c(=O)n(CCCCN2CCC(OC(c3ccccc3)c3ccccc3)CC2)c2ccc([N+](=O)[O-])cc12
83 | 134 to 135 °C | COc1ccc(C2Sc3ccccc3N(CCN(C)C)C(=O)C2OC(C)=O)cc1 (centres undefined)
84 | 137 to 139 °C | CCCc1c(COc2ccc(Cc3nnn(Cc4nnn[nH]4)n3)cc2)ccc(C(C)=O)c1O
85 | 150 °C | COc1cccc(Oc2ccc3ccc(-c4cc(OC)ccc4C(N)=O)nc3n2)c1
86 | 204 to 205 °C | Cc1oc(-c2ccccc2)nc1COc1ccc(Cn2cc(C(=O)O)c(-c3cccs3)n2)cc1
87 | 60 to 63 °C | COc1ccc(CC(=O)NCC(OC)OC)cc1OC
88 | 234 °C | Cc1cc(-c2cc(C(F)(F)F)nc(-c3ccnc(-c4cccc(S(N)(=O)=O)c4)c3)n2)ccc1Cl
89 | 258 to 260 °C | CC(=O)Nc1ncc2cc(-c3c(Cl)cccc3Cl)c(=O)n(C)c2n1
90 | 270 to 272 °C | Cc1cc(-c2cc3c(cc2F)c(=O)c(C(=O)O)cn3C2CC2)cc(CO)n1
91 | 182 to 183 °C | Cc1csc2c(-c3ccccc3)c(-c3ccc(Cl)s3)c(CC(=O)O)n12
92 | 134 to 135 °C | COc1cc(CCCC2OC(=O)NC2=O)ccc1OCc1coc(-c2ccccc2)n1 (centres undefined)
93 | 171 to 172 °C | Cc1nnc(-c2ccc3occ(-c4ccc(S(=O)Cc5ccccc5C#N)cc4)c3c2)o1 (centres undefined)
94 | 167 to 168 °C | CCCc1c(OCCOc2ccc3c(=O)cc(-c4ccc(C(=O)OCC)cc4)oc3c2CCC)ccc(C(C)=O)c1O
95 | 77 °C | Cc1ccc(S(=O)(=O)N2[C@H](CCCCc3nnnn3C)CC[C@@H]2c2ccc(F)cc2)cc1 (racemic)
96 | 94 to 95 °C | COC(=O)c1ccc(CN2C(=O)C(CCO)Oc3ccccc32)cc1 (centres undefined)
97 | 207 to 208 °C | Cc1ccc(S(=O)(=O)n2c(Br)cc(-c3ccc(F)cc3)c2-c2ccc(S(C)(=O)=O)cc2)cc1
98 | 219 to 220 °C | Cc1ccc(-c2ccc3c(c2)C=C(C(=O)Nc2ccc(CO)cc2)CC3)cc1
99 | 176 to 179 °C | COc1cc(/C=C/C=C/C(=O)NCCCN2CCC(c3c[nH]c4ccccc34)CC2)cc(OC)c1O
